From patent KR20170078259A, “아이소스테비올을 포함하는 피부상태 개선용 조성물” (주식회사 엘지생활건강, priority 2015, dated 2017) come the findings set out here.

Entries after “also recorded” stand apart in the source; their conditions may differ.

A short description of assay [1]: Anti-glycation (L-arginine and glucose). As to conditions: for inhibition rate: 70 °C, 4 h, 420 nm. The format is biochemical.
Assay [2] has as its system B-16 mouse melanoma cell (쥐의 멜라노마 세포). As to the kind of experiment: Total melanin increase in B-16 mouse melanoma cells (darkening effect). The format is cell-based. As to conditions: for melanin production: absorbance at 400 nm per 1×10^6 cells.
For assay [3], the target named is T1, elastase derived from human leukocytes (사람의 백혈구 세포로부터 유래한 엘라스테이즈) (Homo sapiens, UniProt P08246).
T1 construct: 사람의 백혈구 세포로부터 유래한 엘라스테이즈를 사용하였고; from tissue; host or cells: human leukocytes
T1 sequence (P08246 30-267): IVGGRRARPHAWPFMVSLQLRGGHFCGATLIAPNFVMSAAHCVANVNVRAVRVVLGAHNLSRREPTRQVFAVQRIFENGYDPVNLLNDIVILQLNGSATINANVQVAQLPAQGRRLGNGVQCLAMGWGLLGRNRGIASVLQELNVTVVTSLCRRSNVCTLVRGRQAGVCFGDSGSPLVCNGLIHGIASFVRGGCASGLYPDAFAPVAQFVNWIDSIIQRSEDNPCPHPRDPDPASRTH
Kind of assay: Elastase activity inhibition (MeOSuc-Ala-Ala-Pro-Val-pNA substrate). The format is biochemical. As to conditions: for elastase activity inhibition (in words): compared with quercetin; for enzyme activity: slope of absorbance at 405 nm.

The subject of assay [4] is human-derived fibroblasts, type I collagen (인간 유래 섬유아세포, 제1형 콜라겐). As to the kind of experiment: Type I collagen synthesis promotion in human-derived fibroblasts (PICP EIA kit). The format is cell-based.
The mark [5] stands for this setting: 10 ppm, room temperature, 20 min, n = 3, read-out: inhibition rate.

`N=C(N)NN` [Aminoguanidine, reference compound] gave an inhibition rate in assay [1] (aminoguanidine positive control, 55 ppm) of 54.89%.

As to `C=C[C@@]1(C)CC(=O)[C@]2(O)[C@@]3(C)[C@@H](O)CCC(C)(C)[C@@H]3[C@H](O)[C@H](OC(C)=O)[C@@]2(C)O1` [Forskolin, reference compound], the melanin production in assay [2] (10 ppm, 3 days) was determined as 0.792 abs. The activation at 10 ppm in assay [2] (Mus musculus, 72 h, 10 ppm, 3 days, relative to control, read-out: increase rate (total melanin)) is 140%.

In the case of `O=c1c(O)c(-c2ccc(O)c(O)c2)oc2cc(O)cc(O)c12` [Quercetin, reference compound], in assay [3] (setting [5]), the inhibition at 10 ppm came to 69.2%.

Take `O=C1O[C@H]([C@@H](O)CO)C(O)=C1O` [비타민C, reference compound]: the activation at 52.85 ppm in assay [4] (Homo sapiens, Fibroblast, vitamin C positive control, 52.85 ppm, 48 h, relative to negative control, n = 4, read-out: increase rate (type I collagen production)) was 64.3%. For the same compound, the “type I collagen production” value in assay [4] (vitamin C positive control, 52.85 ppm, 48 h, n = 4) turned out to be 246.8 ng/mL.

In the case of `C[C@@]12CC[C@@H]3[C@@](CC[C@H]4[C@@]3(C)CCC[C@@]4(C)C(=O)O)(CC1=O)C2` [화학식 1의 화합물, (4α,8β,13β)-13-Methyl-16-oxo-17-norkauran-18-oic acid], in assay [4] (1 and 10 ppm, compared with vitamin C), the “collagen synthesis effect (in words)” value is recorded as “농도 의존적으로 콜라겐 합성량이 증가되었고; also recorded: 비타민C를 적용한 경우보다 더 낮은 농도에서 유사한 콜라겐 합성 효과를 나타내었다”. The “type I collagen production” value in assay [4] (1 ppm, 48 h, n = 4) came out at 187.6 ng/mL; in assay [4] (10 ppm, 48 h, n = 4), 265.5 ng/mL. For the same compound, the activation at 1 ppm in assay [4] (Homo sapiens, Fibroblast, 1 ppm, 48 h, relative to negative control, n = 4, read-out: increase rate (type I collagen production)) came to 24.9%; in assay [2] (Mus musculus, 72 h, 1 ppm, 3 days, relative to control, read-out: increase rate (total melanin)), 101%. In assay [4] (Homo sapiens, Fibroblast, 10 ppm, 48 h, relative to negative control, n = 4, read-out: increase rate (type I collagen production)), the activation at 10 ppm came out at 76.8%. Besides, the “elastase activity inhibition (in words)” value in assay [3] (10 ppm) is “엘라스테이즈 활성 저해 효과가 양성대조군인 퀘르세틴에 상응하는 정도로 높게 나타났으며”; in assay [3] (20 ppm), “퀘르세틴보다 우수한 엘라스테이즈 활성 저해 효과가 나타나”. Further, the inhibition at 10 ppm in assay [3] (setting [5]) stood at 55.8%. In addition, the enzyme activity is 4.6 in assay [3] (10 ppm, room temperature, 20 min, n = 3) and 3.2 in assay [3] (20 ppm, room temperature, 20 min, n = 3). Further, in assay [3] (20 ppm, room temperature, 20 min, n = 3, read-out: inhibition rate), the inhibition at 20 ppm stood at 69.2%. Moreover, the inhibition rate in assay [1] (25 ppm) is reported as 51.12%; in assay [1] (50 ppm), 69.22%. In addition, the “anti-glycation effect (in words)” value in assay [1] (compared with aminoguanidine) is “항당화 효과가 더욱 뛰어남”. For the same compound, the melanin production in assay [2] (1 ppm, 3 days) was 0.662 abs; in assay [2] (20 ppm as printed in table, 3 days), 0.831 abs. The “total melanin increase effect (in words)” value in assay [2] (10 ppm, compared with forskolin) was 10 ppm에서도 상당히 우수한 멜라닌 총량 증가 효과. Also, the activation at 20 ppm in assay [2] (Mus musculus, 72 h, 20 ppm as printed in table, 3 days, relative to control, read-out: increase rate (total melanin)) is 152%.

Broadly, the inhibition is the share of the control response that was lost under treatment.
